According to patent US6740671B2 (priority 2000, dated 2004):

Assay: Foliar penetration of C14-labeled ethaboxam into cucumber
Format: in vivo
Details: cucumber foliage, 24 hours after spotting; result in words
Description: In order to investigate the relationship of the concentration of polyoxyalkylene alkyl ether and the foliar penetration of ethaboxam, foliar penetration experiment was carried out using radioisotope [C^14]-labeled ethaboxam as follows.
Cucumber seeds were sown in a horticultural bed soil of pots having a diameter of 6 cm and grown under glass for 3 weeks. 10 mg of the formulation prepared in the comparative example was diluted in 10 ml of tap water. 20 μl of the diluted solution was taken and thereto was added 1.0 μCi of ethaboxam labeled with C^14(81.7 μCi/mg) to prepare the diluted ethaboxam formulation labeled with C^14. […]
The plants were cut at a distance of 1 cm from the bottom of soil and the cuts were introduced into 250 ml Erlenmeyer flaska 50 ml of the mixed solution of acetonitrile and distilled water(volume ratio=1:4) was added thereto and then, the flask was plugged and shaken for 1 minute. Radioactivity of C^14-ethaboxam in the solution was measured with a liquid scintillation counter and the residue was combusted with a sample oxidizer to collect C^14-carbon dioxide, which was analyzed with the liquid scintillation counter.
Foliar penetration of ethaboxam is calculated by subtracting radioactivity in the solution from the total radioactivity, which is identical with radioactivity in the residue.

CCNc1nc(CC)c(C(=O)NC(C#N)c2cccs2)s1 (stereo not drawn) [ethaboxam, N-(α-cyano-2-thenyl)-4-ethyl-2-(ethylamino)-5-thiazolecarboxamide]
foliar penetration of ethaboxam: hardly penetrated into plants in the absence of adjuvant
